Molecules are shown by their SMILES.

The assay concerns HIV-1 (H9IIIB strain). The assay can be described thus: Cell-based HIV infection assay using a reporter (Cell-Based), MT4-GFP cells. The note with it: Human immunodeficiency virus 1, MT4-GFP cells infected with HIV-1 H9IIIB; 50% normal human serum; mean of at least two independent experiments; read-out: Cell-based IP. In outline: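 MT4-GFP cells (HIV LTR-driven GFP) infected 24 h with HIV-1 H9IIIB at low MOI, then washed and plated with compounds in RPMI + 50% normal human serum, 0.4% DMSO final. Green cells counted at 24 and 48 h; R0 = 48 h/24 h ratio, inhibition normalized to DMSO and triple-drug control; IC50 from 4-parameter fit.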
With `COC(=O)N[C@H](C(=O)Nc1cncc(F)c1CC[C@H]1CNCCN1S(=O)(=O)c1ccccc1)C1(c2ccc(Cl)cc2)CCOCC1` [Example 71, methyl {(1S)-1-[4-(4-chlorophenyl)tetrahydro-2H-pyran-4-yl]-2-[(5-fluoro-4-{2-[(2S)-1-(phenylsulfonyl)piperazin-2-yl]ethyl}pyridin-3-yl)amino]-2-oxoethyl} carbamate], the IC50 worked out at 0.011 µM. The value for `N[C@H](C(=O)Nc1cccc(F)c1CC[C@H]1CNCCN1S(=O)(=O)c1ccccc1)[C@H](CCC1CCOCC1)c1ccc(Cl)c(F)c1` [Example 72, (βR)-4-chloro-3-fluoro-N-(3-fluoro-2-{2-[(2S)-1-(phenylsulfonyl)piperazin-2-yl]ethyl}phenyl)-β-[2-(tetrahydro-2H-pyran-4-yl)ethyl]-L-phenylalaninamide] was 0.021 µM; that for `COC(=O)N[C@H](C(=O)Nc1cccc(F)c1CC[C@H]1CNCCN1S(=O)(=O)c1ccccc1)[C@H](CCC1CCOCC1)c1ccc(Cl)c(F)c1` [Example 73, (βR)-4-chloro-3-fluoro-N-(3-fluoro-2-{2-[(2S)-1-(phenylsulfonyl)piperazin-2-yl]ethyl}phenyl)-Nα-(methoxycarbonyl)-β-[2-(tetrahydro-2H-pyran-4-yl)ethyl]-L-phenylalaninamide] was 0.0076 µM; that for `CC1(C)CC([C@H](c2ccc(Cl)cc2)[C@H](N)C(=O)Nc2cccc(F)c2CC[C@H]2CNCCN2S(=O)(=O)c2ccccc2)CCO1` (stereo partly drawn) [Example 74, (βR)-4-chloro-β-(2,2-dimethyltetrahydro-2H-pyran-4-yl)-N-(3-fluoro-2-{2-[(2S)-1-(phenylsulfonyl)piperazin-2-yl]ethyl}phenyl)-L-phenylalaninamide] was 0.024 µM. The value for `CC1(C)CC([C@H](c2ccc(Cl)cc2)[C@H](N)C(=O)Nc2cccc(F)c2CC[C@H]2CNCCN2S(=O)(=O)c2ccccc2)CC(C)(C)O1` [Example 75, (βR)-4-chloro-N-(3-fluoro-2-{2-[(2S)-1-(phenylsulfonyl)piperazin-2-yl]ethyl}phenyl)-β-(2,2,6,6-tetramethyltetrahydro-2H-pyran-4-yl)-L-phenylalaninamide] was 0.15 µM; that for `COC(=O)N[C@H](C(=O)Nc1cccc(F)c1CC[C@H]1CNCCN1S(=O)(=O)c1ccccc1)[C@@H](c1ccc(Cl)cc1)C1CCOC(C)(C)C1` (stereo partly drawn) [Example 76, (βR)-4-chloro-β-(2,2-dimethyltetrahydro-2H-pyran-4-yl)-N-(3-fluoro-2-{2-[(2S)-1-(phenylsulfonyl)piperazin-2-yl]ethyl}phenyl)-Nα-(methoxycarbonyl)-L-phenylalaninamide] was 0.0094 µM. The same measure for `COC(=O)N[C@H](C(=O)Nc1cccc(F)c1CC[C@H]1CNCCN1S(=O)(=O)c1ccccc1)[C@@H](c1ccc(Cl)cc1)C1CC(C)(C)OC(C)(C)C1` [Example 77, (βR)-4-chloro-N-(3-fluoro-2-{2-[(2S)-1-(phenylsulfonyl)piperazin-2-yl]ethyl}phenyl)-Nα-(methoxycarbonyl)-β-(2,2,6,6-tetramethyltetrahydro-2H-pyran-4-yl)-L-phenylalaninamide]: 0.018 µM; for `CC1(C)CC([C@H](c2ccc(Cl)cc2)[C@H](N)C(=O)Nc2cccc(F)c2CC[C@H]2CNCCN2S(C)(=O)=O)CCO1` (stereo partly drawn) [Example 78, (βR)-4-chloro-β-(2,2-dimethyltetrahydro-2H-pyran-4-yl)-N-(3-fluoro-2-{2-[(2S)-1-(methylsulfonyl)piperazin-2-yl]ethyl}phenyl)-L-phenylalaninamide]: 0.11 µM. For the molecule `COC(=O)N[C@H](C(=O)Nc1cccc(F)c1CC[C@H]1CNCCN1S(C)(=O)=O)[C@@H](c1ccc(Cl)cc1)C1CCOC(C)(C)C1` (stereo partly drawn) [Example 79, (βR)-4-chloro-β-(2,2-dimethyltetrahydro-2H-pyran-4-yl)-N-(3-fluoro-2-{2-[(2S)-1-(methylsulfonyl)piperazin-2-yl]ethyl}phenyl)-Nα-(methoxycarbonyl)-L-phenylalaninamide], the IC50 was 0.03 µM. The same measure for `CC(=O)N[C@H](C(=O)Nc1cncc(F)c1CC[C@H]1CNCCN1S(=O)(=O)C1CC1)[C@@H](c1ccc(F)cc1)c1cc(F)cc(F)c1` [Example 80, (βS)-Nα-acetyl-N-(4-{2-[(2S)-1-(cyclopropylsulfonyl)piperazin-2-yl]ethyl}-5-fluoropyridin-3-yl)-3,5-difluoro-β-(4-fluorophenyl)-L-phenylalaninamide]: 0.066 µM; for `O=C(N[C@H](C(=O)Nc1cncc(F)c1CC[C@H]1CNCCN1S(=O)(=O)C1CC1)[C@@H](c1ccc(F)cc1)c1cc(F)cc(F)c1)C1CC1` [Example 81]: 0.025 µM. The same measure for `O=C(CC1CC1)N[C@H](C(=O)Nc1cncc(F)c1CC[C@H]1CNCCN1S(=O)(=O)C1CC1)[C@@H](c1ccc(F)cc1)c1cc(F)cc(F)c1` [Example 82, (βS)-Nα-(cyclopropylacetyl)-N-(4-{2-[(2S)-1-(cyclopropylsulfonyl)piperazin-2-yl]ethyl}-5-fluoropyridin-3-yl)-3,5-difluoro-β-(4-fluorophenyl)-L-phenylalaninamide]: 0.034 µM; for `N[C@H](C(=O)Nc1cncc(F)c1CC[C@H]1CNCCN1S(=O)(=O)N1CCCC1)[C@@H](c1ccc(F)cc1)c1cc(F)cc(F)c1` [Example 83, (βS)-3,5-difluoro-β-(4-fluorophenyl)-N-(5-fluoro-4-{2-[(2S)-1-(pyrrolidin-1-ylsulfonyl)piperazin-2-yl]ethyl}pyridin-3-yl)-L-phenylalaninamide]: 0.0089 µM; for `COC(=O)N[C@H](C(=O)Nc1cncc(F)c1CC[C@H]1CNCCN1S(=O)(=O)N1CCCC1)[C@@H](c1ccc(F)cc1)c1cc(F)cc(F)c1` [Example 84, (βS)-3,5-difluoro-β-(4-fluorophenyl)-N-(5-fluoro-4-{2-[(2S)-1-(pyrroldin-1-ylsulfonyl)piperazin-2-yl]ethyl}pyridin-3-yl)-Nα-(methoxycarbonyl)-L-phenylalaninamide]: 0.0084 µM. For the molecule `CC(=O)N[C@H](C(=O)Nc1cncc(F)c1CC[C@H]1CNCCN1S(=O)(=O)N1CCCC1)[C@@H](c1ccc(F)cc1)c1cc(F)cc(F)c1` [Example 85, (βS)-Nα-acetyl-3,5-difluoro-β-(4-fluorophenyl)-N-(5-fluoro-4-{2-[(2S)-1-(pyrrolidin-1-ylsulfonyl)piperazin-2-yl]ethyl}pyridin-3-yl)-L-phenylalaninamide], the IC50 was found to be 0.021 µM. Regarding `O=C(N[C@H](C(=O)Nc1cncc(F)c1CC[C@H]1CNCCN1S(=O)(=O)N1CCCC1)[C@@H](c1ccc(F)cc1)c1cc(F)cc(F)c1)C1CC1` [Example 86], the IC50 worked out at 0.013 µM. In the case of `O=C(CC1CC1)N[C@H](C(=O)Nc1cncc(F)c1CC[C@H]1CNCCN1S(=O)(=O)N1CCCC1)[C@@H](c1ccc(F)cc1)c1cc(F)cc(F)c1` [Example 87], the IC50 came to 0.016 µM. In the case of `C[C@@H]1CN(S(=O)(=O)c2ccccc2)[C@@H](CCc2c(F)cccc2NC(=O)CC(c2ccc(F)cc2)c2ccc(F)cc2)CN1` [Example 88, N-(3-fluoro-2-{2-[(2S,5R)-5-methyl-1-(phenylsulfonyl)piperazin-2-yl]ethyl}phenyl)-3,3-bis(4-fluorophenyl) propanamide], the IC50 came out at 0.52 µM. The value for `C[C@H]1CN(S(=O)(=O)c2ccccc2)[C@@H](CCc2c(F)cccc2NC(=O)CC(c2ccc(F)cc2)c2ccc(F)cc2)CN1` [Example 89, N-(3-fluoro-2-{2-[(2S,5S)-5-methyl-1-(phenylsulfonyl)piperazin-2-yl]ethyl}phenyl)-3,3-bis(4-fluorophenyl) propanamide] was 0.7 µM.

The values above are taken from patent US9840478B2 (MERCK SHARP & DOHME CORP., priority 2013, dated 2017).
